Results published in PubChem BioAssay AID1963864 (Molecular Pharmacology Branch, DTP, NCI, 2024).

Tested on: KRAS PDC multicell spheroid viability
Test: Anticancer human tumor 521955-158-R6-J3-PDC patient-derived pancreatic carcinoma cell line growth inhibition [KRAS2]
Settings: for viability, T/C: stronger effect = lower value; active = viability on the fitted dose curve at most 10% of control; inactive = the rest
Method in brief: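 Combination screen of spheroid viability in tumor-cell co-cultures with endothelial (HUVEC) and mesenchymal stem cell stroma. Each agent was tested in half-log dilutions, topping at clinical Cmax or at 10 microM without a known Cmax.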

[1] = curve of first compound, second compound 0.1 µM
[2] = curve of first compound, second compound 0.316 µM
[3] = curve of first compound, second compound 1 µM
[4] = curve of first compound, second compound 3.16 µM
[5] = curve of first compound, second compound 10 µM
[6] = second compound 0.1 µM, first compound 0.00316 µM
[7] = second compound 0.1 µM, first compound 0.01 µM
[8] = second compound 0.1 µM, first compound 0.0316 µM
[9] = second compound 0.1 µM, first compound 0.1 µM
[10] = second compound 0.1 µM, first compound 0.316 µM
[11] = second compound 0.1 µM, first compound 1 µM
[12] = second compound 0.316 µM, first compound 0.00316 µM
[13] = second compound 0.316 µM, first compound 0.01 µM
[14] = second compound 0.316 µM, first compound 0.0316 µM
[15] = second compound 0.316 µM, first compound 0.1 µM
[16] = second compound 0.316 µM, first compound 0.316 µM
[17] = second compound 0.316 µM, first compound 1 µM
[18] = second compound 1 µM, first compound 0.00316 µM
[19] = second compound 1 µM, first compound 0.01 µM
[20] = second compound 1 µM, first compound 0.0316 µM
[21] = second compound 1 µM, first compound 0.1 µM
[22] = second compound 1 µM, first compound 0.316 µM
[23] = second compound 1 µM, first compound 1 µM
[24] = second compound 3.16 µM, first compound 0.00316 µM
[25] = second compound 3.16 µM, first compound 0.01 µM
[26] = second compound 3.16 µM, first compound 0.0316 µM
[27] = second compound 3.16 µM, first compound 0.1 µM
[28] = second compound 3.16 µM, first compound 0.316 µM
[29] = second compound 3.16 µM, first compound 1 µM
[30] = second compound 10 µM, first compound 0.00316 µM
[31] = second compound 10 µM, first compound 0.01 µM
[32] = second compound 10 µM, first compound 0.0316 µM
[33] = second compound 10 µM, first compound 0.1 µM
[34] = second compound 10 µM, first compound 0.316 µM
[35] = second compound 10 µM, first compound 1 µM
[36] = curve of first compound, second compound 0.0316 µM
[37] = second compound 0.0316 µM, first compound 0.01 µM
[38] = second compound 0.0316 µM, first compound 0.0316 µM
[39] = second compound 0.0316 µM, first compound 0.1 µM
[40] = second compound 0.1 µM, first compound 3.16 µM
[41] = second compound 0.316 µM, first compound 3.16 µM
[42] = second compound 1 µM, first compound 3.16 µM
[43] = second compound 3.16 µM, first compound 3.16 µM
[44] = second compound 0.1 µM, first compound 0.000316 µM
[45] = second compound 0.1 µM, first compound 0.001 µM
[46] = second compound 0.316 µM, first compound 0.000316 µM
[47] = second compound 0.316 µM, first compound 0.001 µM
[48] = second compound 1 µM, first compound 0.000316 µM
[49] = second compound 1 µM, first compound 0.001 µM
[50] = second compound 3.16 µM, first compound 0.000316 µM
[51] = second compound 3.16 µM, first compound 0.001 µM
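Note: drug exposure lasted seven days.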
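Throughout, for viability, T/C: 100% = DMSO vehicle wells and lower means fewer viable cells.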

CCN1CCN(Cc2ccc(Nc3ncc(F)c(-c4cc(F)c5nc(C)n(C(C)C)c5c4)n3)nc2)CC1 + CC1OCC2(CCN(c3cnc(Sc4ccnc(N)c4Cl)c(N)n3)CC2)C1N
inactive: viability, T/C [6] 81.3% | viability, T/C [7] 79.9% | viability, T/C [8] 73% | viability, T/C [9] 68.4% | viability, T/C [10] 76% | viability, T/C [11] 88.2% | viability, T/C [12] 101% | viability, T/C [13] 84.1% | viability, T/C [14] 82.3% | viability, T/C [15] 69.2% | viability, T/C [16] 71.8% | viability, T/C [17] 85.3% | viability, T/C [18] 94.5% | viability, T/C [19] 91.2% | viability, T/C [20] 97% | viability, T/C [21] 82.1% | viability, T/C [22] 78.8% | viability, T/C [23] 90.1% | viability, T/C [24] 113% | viability, T/C [25] 109% | viability, T/C [26] 84.4% | viability, T/C [27] 78.7% | viability, T/C [28] 83.6% | viability, T/C [29] 115% | viability, T/C [30] 118% | viability, T/C [31] 116% | viability, T/C [32] 111% | viability, T/C [33] 114% | viability, T/C [34] 95.1% | viability, T/C [35] 86.7%
> 1000 nM: IC50 [1] | IC50 [2] | IC50 [3] | IC50 [4] | IC50 [5]

CC1COCCN1c1cc(-c2ccnn2C)c2ccnc(-c3ccn[nH]3)c2n1 (centres undefined) + C=CC(=O)N1CCN(c2nc(OCC3CCCN3C)nc3c2CCN(c2cccc4cccc(C)c24)C3)CC1CC#N
> 3160 nM: IC50 [36] | IC50 [1] | IC50 [2] | IC50 [3]
12.1 nM: IC50 [4]
inactive: viability, T/C [37] 88% | viability, T/C [38] 90.2% | viability, T/C [39] 89.7% | viability, T/C (second compound 0.0316 µM, first compound 0.316 µM) 79.8% | viability, T/C (second compound 0.0316 µM, first compound 1 µM) 78.8% | viability, T/C (second compound 0.0316 µM, first compound 3.16 µM) 92.9% | viability, T/C [7] 92.6% | viability, T/C [8] 95.3% | viability, T/C [9] 77% | viability, T/C [10] 71.4% | viability, T/C [11] 75% | viability, T/C [40] 94.5% | viability, T/C [13] 89.5% | viability, T/C [14] 85.1% | viability, T/C [15] 73.1% | viability, T/C [16] 74.7% | viability, T/C [17] 73.6% | viability, T/C [41] 76.8% | viability, T/C [19] 71.7% | viability, T/C [20] 79% | viability, T/C [21] 68% | viability, T/C [22] 69.4% | viability, T/C [23] 59.9% | viability, T/C [42] 71.7% | viability, T/C [25] 52.2% | viability, T/C [26] 39.7% | viability, T/C [27] 31.9% | viability, T/C [28] 36.5% | viability, T/C [29] 27.6% | viability, T/C [43] 45.8%

COC(=O)c1ccc2c(C(=Nc3ccc(N(C)C(=O)CN4CCN(C)CC4)cc3)c3ccccc3)c(O)[nH]c2c1
active: viability, T/C (compound 10 µM) 0.34% [middle of 5 runs]
inactive: viability, T/C (compound 0.0316 µM) 96.5% [middle of 5 runs] | viability, T/C (compound 0.1 µM) 109% [middle of 5 runs]
3.54 µM [middle of 5 runs]: IC50 (curve of compound)

COc1cc(Nc2ncc3c(n2)-c2ccc(Cl)cc2C(c2c(F)cccc2OC)=NC3)ccc1C(=O)O + CC1OCC2(CCN(c3cnc(Sc4ccnc(N)c4Cl)c(N)n3)CC2)C1N
inactive: viability, T/C [8] 101% | viability, T/C [9] 101% | viability, T/C [10] 99.8% | viability, T/C [11] 82.2% | viability, T/C [40] 99.8% | viability, T/C (second compound 0.1 µM, first compound 10 µM) 95.8% | viability, T/C [14] 97.1% | viability, T/C [15] 95.1% | viability, T/C [16] 95.6% | viability, T/C [17] 86.6% | viability, T/C [41] 81.3% | viability, T/C (second compound 0.316 µM, first compound 10 µM) 87.9% | viability, T/C [20] 102% | viability, T/C [21] 98.5% | viability, T/C [22] 88.1% | viability, T/C [23] 91.7% | viability, T/C [42] 90.9% | viability, T/C (second compound 1 µM, first compound 10 µM) 98% | viability, T/C [26] 103% | viability, T/C [27] 105% | viability, T/C [28] 97.9% | viability, T/C [29] 103% | viability, T/C [43] 104% | viability, T/C (second compound 3.16 µM, first compound 10 µM) 93.4% | viability, T/C [32] 113% | viability, T/C [33] 101% | viability, T/C [34] 103% | viability, T/C [35] 96.5% | viability, T/C (second compound 10 µM, first compound 3.16 µM) 103% | viability, T/C (second compound 10 µM, first compound 10 µM) 91.5%
> 10000 nM: IC50 [1] | IC50 [2] | IC50 [3] | IC50 [4] | IC50 [5]

CC(C)n1nc(-c2ccc3oc(N)nc3c2)c2c(N)ncnc21 + CC1OCC2(CCN(c3cnc(Sc4ccnc(N)c4Cl)c(N)n3)CC2)C1N
> 100 nM: IC50 [1]
inactive: viability, T/C [44] 89% | viability, T/C [45] 85.8% | viability, T/C [6] 74% | viability, T/C [7] 65.3% | viability, T/C [8] 57.4% | viability, T/C [9] 50% | viability, T/C [46] 92.3% | viability, T/C [47] 84.2% | viability, T/C [12] 71.7% | viability, T/C [13] 65.6% | viability, T/C [14] 56.2% | viability, T/C [15] 44.3% | viability, T/C [48] 88.3% | viability, T/C [49] 86.5% | viability, T/C [18] 74.2% | viability, T/C [19] 66.8% | viability, T/C [20] 56% | viability, T/C [21] 44.1% | viability, T/C [50] 112% | viability, T/C [51] 113% | viability, T/C [24] 88.8% | viability, T/C [25] 70.7% | viability, T/C [26] 51.3% | viability, T/C [27] 40.2% | viability, T/C (second compound 10 µM, first compound 0.000316 µM) 99.1% | viability, T/C (second compound 10 µM, first compound 0.001 µM) 101% | viability, T/C [30] 89.7% | viability, T/C [31] 63.1% | viability, T/C [32] 47.3% | viability, T/C [33] 38.3%
33.5 nM: IC50 [4]
55.7 nM: IC50 [3]
56.3 nM: IC50 [2]
23.5 nM: IC50 [5]

CC(C)n1nc(-c2ccc3oc(N)nc3c2)c2c(N)ncnc21 + C=CC(=O)N1CCN(c2nc(OCC3CCCN3C)nc3c2CCN(c2cccc4cccc(C)c24)C3)CC1CC#N
69.1 nM: IC50 [36]
inactive: viability, T/C (second compound 0.0316 µM, first compound 0.000316 µM) 98% | viability, T/C (second compound 0.0316 µM, first compound 0.001 µM) 86.7% | viability, T/C (second compound 0.0316 µM, first compound 0.00316 µM) 85.4% | viability, T/C [37] 62.3% | viability, T/C [38] 63% | viability, T/C [39] 44.8% | viability, T/C [44] 90.8% | viability, T/C [45] 86.4% | viability, T/C [6] 78.2% | viability, T/C [7] 77.6% | viability, T/C [8] 59.8% | viability, T/C [9] 44.2% | viability, T/C [46] 94.2% | viability, T/C [47] 90.7% | viability, T/C [12] 80.6% | viability, T/C [13] 74.4% | viability, T/C [14] 60.3% | viability, T/C [15] 45.9% | viability, T/C [48] 81.8% | viability, T/C [49] 68.6% | viability, T/C [18] 73.3% | viability, T/C [19] 54.2% | viability, T/C [20] 61.2% | viability, T/C [21] 47% | viability, T/C [50] 60.7% | viability, T/C [51] 41.7% | viability, T/C [24] 54.5% | viability, T/C [25] 8.94% | viability, T/C [26] 39.6% | viability, T/C [27] 21.8%
67.9 nM: IC50 [1]
3.47 nM: IC50 [4]
87.1 nM: IC50 [3]
72.8 nM: IC50 [2]

Cn1ncnc1[C@H]1c2n[nH]c(=O)c3cc(F)cc(c23)N[C@@H]1c1ccc(F)cc1
> 100 nM: IC50 (curve of compound)
inactive: viability, T/C (compound 0.000316 µM) 91.8% [middle of 5 runs] | viability, T/C (compound 0.001 µM) 95.2% [middle of 5 runs] | viability, T/C (compound 0.01 µM) 104% [middle of 5 runs] | viability, T/C (compound 0.1 µM) 89.8% [middle of 5 runs]
